Assay results as given in US20230085307A1, “PYRIDAZINONE COMPOUND AND HERBICIDE” (NISSAN CHEMICAL CORPORATION, priority 2019, published 2023).

Columns and labels:
barnyard grass [1] = experiment: Test Example 3: herbicidal effect by foliage application, Wagner pot (Table 18, symbol H); assay type: in vivo, barnyard grass (Echinochloa crus-galli); details: amount of applied herbicide 320 g/ha
How it was run: (§1)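 Plants were sown in alluvial soil held under 0.1–0.5 cm standing water and grown 14 days in a greenhouse at 25–30 °C. An emulsifiable formulation, water-diluted to the set dose, was then sprayed onto the foliage, and effects were scored three weeks later using previously defined criteria.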

Chinese sprangletop = experiment: Test Example 3: herbicidal effect by foliage application, Wagner pot (Table 18, symbol D); assay type: in vivo, chinese sprangletop (Leptochloa chinensis); details: amount of applied herbicide 320 g/ha
How it was run: as §1

rice flat sedge = experiment: Test Example 3: herbicidal effect by foliage application, Wagner pot (Table 18, symbol E); assay type: in vivo, rice flat sedge (Cyperus iria); details: amount of applied herbicide 320 g/ha
How it was run: as §1

southern crabgrass [2] = experiment: Test Example 4: herbicidal effect by soil treatment (Table 19, symbol F); assay type: in vivo, southern crabgrass (Digitaria ciliaris); details: amount of applied herbicide 320 g/ha
How it was run: (§2)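 Scoring uses the grading scale of an earlier test, three weeks post-application. Treatment consists of spraying a diluted emulsion formulation across the surface of sterilized diluvial soil in which seeds are buried near 1.5 cm deep; boxes are kept in a greenhouse between 25° C. and 30° C.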

green foxtail [3] = experiment: Test Example 4: herbicidal effect by soil treatment (Table 19, symbol G); assay type: in vivo, green foxtail (Setaria viridis); details: amount of applied herbicide 320 g/ha
How it was run: as §2

barnyard grass [4] = experiment: Test Example 4: herbicidal effect by soil treatment (Table 19, symbol H); assay type: in vivo, barnyard grass (Echinochloa crus-galli); details: amount of applied herbicide 320 g/ha
How it was run: as §2

wild oat [5] = experiment: Test Example 4: herbicidal effect by soil treatment (Table 19, symbol I); assay type: in vivo, wild oat (Avena fatua); details: amount of applied herbicide 320 g/ha
How it was run: as §2

blackgrass [6] = experiment: Test Example 4: herbicidal effect by soil treatment (Table 19, symbol J); assay type: in vivo, blackgrass (Alopecurus myosuroides); details: amount of applied herbicide 320 g/ha
How it was run: as §2

Italian ryegrass [7] = experiment: Test Example 4: herbicidal effect by soil treatment (Table 19, symbol K); assay type: in vivo, Italian ryegrass (Lolium multiflorum); details: amount of applied herbicide 320 g/ha
How it was run: as §2

windgrass [8] = experiment: Test Example 4: herbicidal effect by soil treatment (Table 19, symbol L); assay type: in vivo, windgrass (Apera spica-venti); details: amount of applied herbicide 320 g/ha
How it was run: as §2

velvetleaf [9] = experiment: Test Example 4: herbicidal effect by soil treatment (Table 19, symbol M); assay type: in vivo, velvetleaf (Abutilon theophrasti); details: amount of applied herbicide 320 g/ha
How it was run: as §2

redroot pigweed [10] = experiment: Test Example 4: herbicidal effect by soil treatment (Table 19, symbol N); assay type: in vivo, redroot pigweed (Amaranthus retroflexus); details: amount of applied herbicide 320 g/ha
How it was run: as §2

lambsquarters [11] = experiment: Test Example 4: herbicidal effect by soil treatment (Table 19, symbol O); assay type: in vivo, lambsquarters (Chenopodium album); details: amount of applied herbicide 320 g/ha
How it was run: as §2

chickweed [12] = experiment: Test Example 4: herbicidal effect by soil treatment (Table 19, symbol P); assay type: in vivo, common chickweed (Stellaria media); details: amount of applied herbicide 320 g/ha
How it was run: as §2

persian speedwell [13] = experiment: Test Example 4: herbicidal effect by soil treatment (Table 19, symbol R); assay type: in vivo, Persian speedwell (Veronica persica); details: amount of applied herbicide 320 g/ha
How it was run: as §2

southern crabgrass [14] = experiment: Test Example 5: herbicidal effect by foliage application, plastic box (Table 20, symbol F); assay type: in vivo, southern crabgrass (Digitaria ciliaris); details: foliage application, 320 g/ha, evaluated three weeks after application
How it was run: (§3)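 Post-emergence foliar test in sterilized diluvial soil. Compound applied as water-diluted emulsion at a predetermined rate to 14-day-old plants; evaluation at three weeks.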

green foxtail [15] = experiment: Test Example 5: herbicidal effect by foliage application, plastic box (Table 20, symbol G); assay type: in vivo, green foxtail (Setaria viridis); details: foliage application, 320 g/ha, evaluated three weeks after application
How it was run: as §3

barnyard grass [16] = experiment: Test Example 5: herbicidal effect by foliage application, plastic box (Table 20, symbol H); assay type: in vivo, barnyard grass (Echinochloa crus-galli); details: foliage application, 320 g/ha, evaluated three weeks after application
How it was run: as §3

wild oat [17] = experiment: Test Example 5: herbicidal effect by foliage application, plastic box (Table 20, symbol I); assay type: in vivo, wild oat (Avena fatua); details: foliage application, 320 g/ha, evaluated three weeks after application
How it was run: as §3

blackgrass [18] = experiment: Test Example 5: herbicidal effect by foliage application, plastic box (Table 20, symbol J); assay type: in vivo, blackgrass (Alopecurus myosuroides); details: foliage application, 320 g/ha, evaluated three weeks after application
How it was run: as §3

Italian ryegrass [19] = experiment: Test Example 5: herbicidal effect by foliage application, plastic box (Table 20, symbol K); assay type: in vivo, Italian ryegrass (Lolium multiflorum); details: foliage application, 320 g/ha, evaluated three weeks after application
How it was run: as §3

windgrass [20] = experiment: Test Example 5: herbicidal effect by foliage application, plastic box (Table 20, symbol L); assay type: in vivo, windgrass (Apera spica-venti); details: foliage application, 320 g/ha, evaluated three weeks after application
How it was run: as §3

velvetleaf [21] = experiment: Test Example 5: herbicidal effect by foliage application, plastic box (Table 20, symbol M); assay type: in vivo, velvetleaf (Abutilon theophrasti); details: foliage application, 320 g/ha, evaluated three weeks after application
How it was run: as §3

redroot pigweed [22] = experiment: Test Example 5: herbicidal effect by foliage application, plastic box (Table 20, symbol N); assay type: in vivo, redroot pigweed (Amaranthus retroflexus); details: foliage application, 320 g/ha, evaluated three weeks after application
How it was run: as §3

lambsquarters [23] = experiment: Test Example 5: herbicidal effect by foliage application, plastic box (Table 20, symbol O); assay type: in vivo, lambsquarters (Chenopodium album); details: foliage application, 320 g/ha, evaluated three weeks after application
How it was run: as §3

chickweed [24] = experiment: Test Example 5: herbicidal effect by foliage application, plastic box (Table 20, symbol P); assay type: in vivo, common chickweed (Stellaria media); details: foliage application, 320 g/ha, evaluated three weeks after application
How it was run: as §3

persian speedwell [25] = experiment: Test Example 5: herbicidal effect by foliage application, plastic box (Table 20, symbol R); assay type: in vivo, Persian speedwell (Veronica persica); details: foliage application, 320 g/ha, evaluated three weeks after application
How it was run: as §3

Structure (SMILES)	herbicidal effect on H: barnyard grass (barnyard grass [1])	herbicidal effect on D: Chinese sprangletop (Chinese sprangletop)	herbicidal effect on E: rice flat sedge (rice flat sedge)	F: southern crabgrass, herbicidal effect rating (southern crabgrass [2])	G: green foxtail, herbicidal effect rating (green foxtail [3])	H: barnyard grass, herbicidal effect rating (barnyard grass [4])	I: wild oat, herbicidal effect rating (wild oat [5])	J: blackgrass, herbicidal effect rating (blackgrass [6])	K: Italian ryegrass, herbicidal effect rating (Italian ryegrass [7])	L: windgrass, herbicidal effect rating (windgrass [8])	M: velvetleaf, herbicidal effect rating (velvetleaf [9])	N: redroot pigweed, herbicidal effect rating (redroot pigweed [10])	O: lambsquarters, herbicidal effect rating (lambsquarters [11])	P: chickweed, herbicidal effect rating (chickweed [12])	R: persian speedwell, herbicidal effect rating (persian speedwell [13])	herbicidal effect on F: southern crabgrass (criteria 0-5) (southern crabgrass [14])	herbicidal effect on G: green foxtail (criteria 0-5) (green foxtail [15])	herbicidal effect on H: barnyard grass (criteria 0-5) (barnyard grass [16])	herbicidal effect on I: wild oat (criteria 0-5) (wild oat [17])	herbicidal effect on J: blackgrass (criteria 0-5) (blackgrass [18])	other results
C#Cc1ccc2sc(-c3ccccc3OC)c(-c3c(O)c(C)nn(C)c3=O)c2c1 [2-187]	4 (Herbicidal rate of 70% or more and less than 90%)	0 (Herbicidal rate of 5% or less (almost no effect))	0 (Herbicidal rate of 5% or less (almost no effect))	1 (Herbicidal rate of 5% or more and less than 20%)	4 (Herbicidal rate of 70% or more and less than 90%)	3 (Herbicidal rate of 40% or more and less than 70%)	0 (Herbicidal rate of 5% or less (almost no effect))	4 (Herbicidal rate of 70% or more and less than 90%)	4 (Herbicidal rate of 70% or more and less than 90%)	5 (Herbicidal rate of 90% or more (almost completely withered))	2 (Herbicidal rate of 20% or more and less than 40%)	4 (Herbicidal rate of 70% or more and less than 90%)	4 (Herbicidal rate of 70% or more and less than 90%)	3 (Herbicidal rate of 40% or more and less than 70%)	0 (Herbicidal rate of 5% or less (almost no effect))	4 (Herbicidal rate of 70% or more and less than 90%)	3 (Herbicidal rate of 40% or more and less than 70%)	1 (Herbicidal rate of 5% or more and less than 20%)	0 (Herbicidal rate of 5% or less (almost no effect))	5 (Herbicidal rate of 90% or more (almost completely withered))	herbicidal effect on K: Italian ryegrass (criteria 0-5) (Italian ryegrass [19]): 4 (Herbicidal rate of 70% or more and less than 90%); herbicidal effect on L: windgrass (criteria 0-5) (windgrass [20]): 5 (Herbicidal rate of 90% or more (almost completely withered)); herbicidal effect on M: velvetleaf (criteria 0-5) (velvetleaf [21]): 5 (Herbicidal rate of 90% or more (almost completely withered)); herbicidal effect on N: redroot pigweed (criteria 0-5) (redroot pigweed [22]): 5 (Herbicidal rate of 90% or more (almost completely withered)); herbicidal effect on O: lambsquarters (criteria 0-5) (lambsquarters [23]): 4 (Herbicidal rate of 70% or more and less than 90%); herbicidal effect on P: chickweed (criteria 0-5) (chickweed [24]): 5 (Herbicidal rate of 90% or more (almost completely withered)); herbicidal effect on R: persian speedwell (criteria 0-5) (persian speedwell [25]): 5 (Herbicidal rate of 90% or more (almost completely withered))
COc1cc(F)ccc1-c1sc2ccc(C(C)=O)cc2c1-c1c(O)c(C)nn(C)c1=O [2-192]	4 (Herbicidal rate of 70% or more and less than 90%)	2 (Herbicidal rate of 20% or more and less than 40%)	2 (Herbicidal rate of 20% or more and less than 40%)	0 (Herbicidal rate of 5% or less (almost no effect))	3 (Herbicidal rate of 40% or more and less than 70%)	1 (Herbicidal rate of 5% or more and less than 20%)	0 (Herbicidal rate of 5% or less (almost no effect))	0 (Herbicidal rate of 5% or less (almost no effect))	0 (Herbicidal rate of 5% or less (almost no effect))	0 (Herbicidal rate of 5% or less (almost no effect))	0 (Herbicidal rate of 5% or less (almost no effect))	4 (Herbicidal rate of 70% or more and less than 90%)	4 (Herbicidal rate of 70% or more and less than 90%)	0 (Herbicidal rate of 5% or less (almost no effect))	0 (Herbicidal rate of 5% or less (almost no effect))	4 (Herbicidal rate of 70% or more and less than 90%)	4 (Herbicidal rate of 70% or more and less than 90%)	2 (Herbicidal rate of 20% or more and less than 40%)	0 (Herbicidal rate of 5% or less (almost no effect))	4 (Herbicidal rate of 70% or more and less than 90%)	herbicidal effect on K: Italian ryegrass (criteria 0-5) (Italian ryegrass [19]): 0 (Herbicidal rate of 5% or less (almost no effect)); herbicidal effect on L: windgrass (criteria 0-5) (windgrass [20]): 0 (Herbicidal rate of 5% or less (almost no effect)); herbicidal effect on M: velvetleaf (criteria 0-5) (velvetleaf [21]): 4 (Herbicidal rate of 70% or more and less than 90%); herbicidal effect on N: redroot pigweed (criteria 0-5) (redroot pigweed [22]): 3 (Herbicidal rate of 40% or more and less than 70%); herbicidal effect on O: lambsquarters (criteria 0-5) (lambsquarters [23]): 3 (Herbicidal rate of 40% or more and less than 70%); herbicidal effect on P: chickweed (criteria 0-5) (chickweed [24]): 5 (Herbicidal rate of 90% or more (almost completely withered)); herbicidal effect on R: persian speedwell (criteria 0-5) (persian speedwell [25]): 5 (Herbicidal rate of 90% or more (almost completely withered))
CCCC(=O)Oc1c(C)nn(C)c(=O)c1-c1c(-c2ccccc2Cl)sc2ccc(F)cc12 [2-204]	4 (Herbicidal rate of 70% or more and less than 90%)	3 (Herbicidal rate of 40% or more and less than 70%)	3 (Herbicidal rate of 40% or more and less than 70%)	0 (Herbicidal rate of 5% or less (almost no effect))	0 (Herbicidal rate of 5% or less (almost no effect))	0 (Herbicidal rate of 5% or less (almost no effect))	0 (Herbicidal rate of 5% or less (almost no effect))	0 (Herbicidal rate of 5% or less (almost no effect))	0 (Herbicidal rate of 5% or less (almost no effect))	0 (Herbicidal rate of 5% or less (almost no effect))	0 (Herbicidal rate of 5% or less (almost no effect))	2 (Herbicidal rate of 20% or more and less than 40%)	0 (Herbicidal rate of 5% or less (almost no effect))	3 (Herbicidal rate of 40% or more and less than 70%)	3 (Herbicidal rate of 40% or more and less than 70%)	0 (Herbicidal rate of 5% or less (almost no effect))	5 (Herbicidal rate of 90% or more (almost completely withered))	0 (Herbicidal rate of 5% or less (almost no effect))	3 (Herbicidal rate of 40% or more and less than 70%)	0 (Herbicidal rate of 5% or less (almost no effect))	herbicidal effect on K: Italian ryegrass (criteria 0-5) (Italian ryegrass [19]): 3 (Herbicidal rate of 40% or more and less than 70%); herbicidal effect on L: windgrass (criteria 0-5) (windgrass [20]): 3 (Herbicidal rate of 40% or more and less than 70%); herbicidal effect on M: velvetleaf (criteria 0-5) (velvetleaf [21]): 4 (Herbicidal rate of 70% or more and less than 90%); herbicidal effect on N: redroot pigweed (criteria 0-5) (redroot pigweed [22]): 5 (Herbicidal rate of 90% or more (almost completely withered)); herbicidal effect on O: lambsquarters (criteria 0-5) (lambsquarters [23]): 3 (Herbicidal rate of 40% or more and less than 70%); herbicidal effect on P: chickweed (criteria 0-5) (chickweed [24]): 5 (Herbicidal rate of 90% or more (almost completely withered)); herbicidal effect on R: persian speedwell (criteria 0-5) (persian speedwell [25]): 5 (Herbicidal rate of 90% or more (almost completely withered))
